Source: patent US7745619B2, “Vinca derivatives” (priority 2003, dated 2010)
Like-named read-outs stand apart in the source and are kept apart here.

Legend:
HeLa S-3 cells = assay: HeLa GI50 determination (SRB growth inhibition); assay type: cell-based, human; details: Homo sapiens, HeLa S3, 48 h
Procedure: Growth inhibition (GI50) values were measured on the human cervical carcinoma cell line, HeLa S-3, which were selected for growth on plastic. The HeLa cell assay was based on the description of Skehan et al., J. Natl. Cancer Inst., 82:1107-12 (1990), which is hereby incorporated by reference in its entirety. HeLa cells were plated at 2×10^4 cells/well in 96 well plates. One day later, a control plate was fixed by the addition of TCA to 5%. After five rinses with tap water, the plate was air-dried and stored at 4° C. Test compounds were added to the remaining plates at 10-fold dilutions. Two days later, all plates were fixed as described above. Cells were then stained by the addition of 100 μL per well of 0.4% sulforhodamine B (SRB) in 1% acetic acid for 30 min at 4° C. Wells were then quickly rinsed 5× with 1% acetic acid and allowed to air dry. The SRB was then solubilized by the addition of 100 μL per well of unbuffered 10 mM Tris base. Dye was quantified by measuring absorbance at 490 nm on a Molecular Devices microplate reader. Growth inhibition was calculated according to the following equation: GI=100×(T−T0)/(C−T0), where the optical density (OD) of the test well after 2 days of treatment was T, the OD of the wells in the control plate on day 0 was T0 and C was the OD of untreated wells. Plots of percent growth inhibition versus inhibitor concentration were used to determine the GI50.

MCF-7 cells = assay: MCF-7 GI50 determination (crystal violet growth inhibition); assay type: cell-based, human; details: Homo sapiens, MCF7, 96 h
Procedure: Growth inhibition (GI50) values were measured on the human breast carcinoma line, MCF-7. MCF-7 cells were plated at 2×10^4 cells/well in 96 well plates and grown for 24 hours in drug free media. On day 2, test compounds were added to the plates at 10-fold dilutions. Four days later, cells were fixed by the addition of glutaraldehyde to 0.75%. After 30 min, the fixed cells were extensively rinsed with distilled water and dried at room temperature for one hour. The cells were then stained with a 0.2% crystal violet solution for one hour at room temperature. Unbound stain was removed by ten rinses with tap water and plates were allowed to air dry for 30 min. The crystal violet was then solubilized by the addition of 10% acetic acid for 15 min and quantified by measuring absorbance at 570 nm on a Molecular Devices microplate reader. Growth inhibition was calculated according to the following equation: GI=[…], where the optical density (OD) of the test well after 4 days of treatment was T, the OD of the wells in the control plate on day 0 was T0. Plots of percent growth inhibition versus inhibitor concentration were used to determine the GI50.

[1] = HeLa S-3 cells, 2 days of treatment, sulforhodamine B, read-out: HeLa Cells GI50
[2] = MCF-7 cells, 4 days of treatment, crystal violet, read-out: MCF-7 Cells GI50
[3] = read-out: MCF-7 Cells GI50 (nM)

SMILES | GI50 (HeLa S-3 cells; [1]) | GI50 (MCF-7 cells; [2]) | GI50 (HeLa S-3 cells; read-out: HeLa Cells GI50 (nM)) | GI50 (MCF-7 cells; [3])
CC[C@]1(O)C[C@H]2CN(CCc3c([nH]c4ccc(SC)cc34)[C@@](C(=O)OC)(c3cc4c(cc3OC)N(C)[C@H]3[C@@](O)(C(=O)OC)[C@H](OC(C)=O)[C@]5(CC)C=CCN6CC[C@]43[C@@H]65)C2)C1 [Example 43, 12′-(methylsulfanyl) vinblastine] | 0.6 nM | 2 nM |  | 
CC[C@]1(O)C[C@H]2CN(CCc3c([nH]c4ccc(SCC(=O)OC(C)(C)C)cc34)[C@@](C(=O)OC)(c3cc4c(cc3OC)N(C)[C@H]3[C@@](O)(C(=O)OC)[C@H](OC(C)=O)[C@]5(CC)C=CCN6CC[C@]43[C@@H]65)C2)C1 [Example 44, 12′-(tert-butoxycarbonylmethylsulfanyl) vinblastine] |  |  | 70 nM | 100 nM
CC[C@]1(O)C[C@H]2CN(CCc3c([nH]c4ccc(SCC(=O)O)cc34)[C@@](C(=O)OC)(c3cc4c(cc3OC)N(C)[C@H]3[C@@](O)(C(=O)OC)[C@H](OC(C)=O)[C@]5(CC)C=CCN6CC[C@]43[C@@H]65)C2)C1 [Example 45, 12′-(carboxymethylsulfanyl)vinblastine] |  |  | 50 nM | 200 nM
CC[C@]1(O)C[C@H]2CN(CCc3c([nH]c4ccc(SCC(=O)NC)cc34)[C@@](C(=O)OC)(c3cc4c(cc3OC)N(C)[C@H]3[C@@](O)(C(=O)OC)[C@H](OC(C)=O)[C@]5(CC)C=CCN6CC[C@]43[C@@H]65)C2)C1 [Example 46, 12′-(methylaminocarbonylmethylsulfanyl)vinblastine] |  |  | 200 nM | 500 nM
CC[C@]1(O)C[C@H]2CN(CCc3c([nH]c4ccc(SCCC(=O)OC)cc34)[C@@](C(=O)OC)(c3cc4c(cc3OC)N(C=O)[C@H]3[C@@](O)(C(=O)OC)[C@H](OC(C)=O)[C@]5(CC)C=CCN6CC[C@]43[C@@H]65)C2)C1 [Example 47, 12′-(methoxycarbonylethylsulfanyl) vincristine] |  |  | 20 nM | 40 nM
CC[C@]1(O)C[C@H]2CN(CCc3c([nH]c4ccc(SCCN(C)C)cc34)[C@@](C(=O)OC)(c3cc4c(cc3OC)N(C)[C@H]3[C@@](O)(C(=O)OC)[C@H](OC(C)=O)[C@]5(CC)C=CCN6CC[C@]43[C@@H]65)C2)C1 [Example 48, 12′-(2-(N,N-dimethylamino)ethylsulfanyl)vinblastine] |  |  | 30 nM | 40 nM
CC[C@]1(O)C[C@H]2CN(CCc3c([nH]c4ccc(SCCCN5CCOCC5)cc34)[C@@](C(=O)OC)(c3cc4c(cc3OC)N(C)[C@H]3[C@@](O)(C(=O)OC)[C@H](OC(C)=O)[C@]5(CC)C=CCN6CC[C@]43[C@@H]65)C2)C1 [Example 49, 12′-(3-(morpholin-4-yl)propylsulfanyl) vinblastine] |  |  | 8 nM | 30 nM
CC[C@]1(O)C[C@H]2CN(CCc3c([nH]c4ccc(SCCCN5CCCCC5)cc34)[C@@](C(=O)OC)(c3cc4c(cc3OC)N(C)[C@H]3[C@@](O)(C(=O)OC)[C@H](OC(C)=O)[C@]5(CC)C=CCN6CC[C@]43[C@@H]65)C2)C1 [Example 50, 12′-(3-(piperidin-1-yl)propylsulfanyl) vinblastine] | 20 nM | 40 nM |  | 
CC[C@]1(O)C[C@H]2CN(CCc3c([nH]c4ccc(SCCNC(C)=O)cc34)[C@@](C(=O)OC)(c3cc4c(cc3OC)N(C)[C@H]3[C@@](O)(C(=O)OC)[C@H](OC(C)=O)[C@]5(CC)C=CCN6CC[C@]43[C@@H]65)C2)C1 [Example 52, 12′-(2-(acetylamino)ethylsulfanyl) vinblastine] |  |  | 200 nM | 300 nM
CC[C@]1(O)C[C@H]2CN(CCc3c([nH]c4ccc(S)cc34)[C@@](C(=O)OC)(c3cc4c(cc3OC)N(C)[C@H]3[C@@](O)(C(=O)OC)[C@H](OC(C)=O)[C@]5(CC)C=CCN6CC[C@]43[C@@H]65)C2)C1 [Example 53, 12′-thiovinblastine] | 20 nM | 30 nM |  | 
CC[C@]1(O)C[C@H]2CN(CCc3c([nH]c4ccc(Sc5cccc(O)c5)cc34)[C@@](C(=O)OC)(c3cc4c(cc3OC)N(C=O)[C@H]3[C@@](O)(C(=O)OC)[C@H](OC(C)=O)[C@]5(CC)C=CCN6CC[C@]43[C@@H]65)C2)C1 [Example 54, 12′-(3-hydroxyphenylsulfanyl)vincristine] |  |  | 100 nM | 50 nM
CC[C@]1(O)C[C@H]2CN(CCc3c([nH]c4ccc(Sc5ccccc5O)cc34)[C@@](C(=O)OC)(c3cc4c(cc3OC)N(C)[C@H]3[C@@](O)(C(=O)OC)[C@H](OC(C)=O)[C@]5(CC)C=CCN6CC[C@]43[C@@H]65)C2)C1 [Example 55, 12′-(2-hydroxyphenylsulfanyl)vinblastine] |  |  | 19 nM | 6 nM
CC[C@]1(O)C[C@H]2CN(CCc3c([nH]c4ccc(Sc5ccccc5Cl)cc34)[C@@](C(=O)OC)(c3cc4c(cc3OC)N(C=O)[C@H]3[C@@](O)(C(=O)OC)[C@H](OC(C)=O)[C@]5(CC)C=CCN6CC[C@]43[C@@H]65)C2)C1 [Example 56, 12′-(2-chlorophenylsulfanyl)vincristine] |  |  | 30 nM | 30 nM
CC[C@]1(O)C[C@H]2CN(CCc3c([nH]c4ccc(SSC)cc34)[C@@](C(=O)OC)(c3cc4c(cc3OC)N(C)[C@H]3[C@@](O)(C(=O)OC)[C@H](OC(C)=O)[C@]5(CC)C=CCN6CC[C@]43[C@@H]65)C2)C1 [Example 57, 12′-(methyldisulfanyl) vinblastine] | 300 nM | 300 nM |  | 
CC[C@]1(O)C[C@H]2CN(CCc3c([nH]c4ccc(SSC(C)C)cc34)[C@@](C(=O)OC)(c3cc4c(cc3OC)N(C)[C@H]3[C@@](O)(C(=O)OC)[C@H](OC(C)=O)[C@]5(CC)C=CCN6CC[C@]43[C@@H]65)C2)C1 [Example 58, 12′-(isopropyldisulfanyl) vinblastine] |  |  | 200 nM | 100 nM
CC[C@]1(O)C[C@H]2CN(CCc3c([nH]c4ccc(SSC(C)(C)C)cc34)[C@@](C(=O)OC)(c3cc4c(cc3OC)N(C)[C@H]3[C@@](O)(C(=O)OC)[C@H](OC(C)=O)[C@]5(CC)C=CCN6CC[C@]43[C@@H]65)C2)C1 [Example 59, 12′-(tert-butyldisulfanyl) vinblastine] |  |  | 300 nM | 300 nM
CC[C@]1(O)C[C@H]2CN(CCc3c([nH]c4ccc(C=O)cc34)[C@@](C(=O)OC)(c3cc4c(cc3OC)N(C)[C@H]3[C@@](O)(C(=O)OC)[C@H](OC(C)=O)[C@]5(CC)C=CCN6CC[C@]43[C@@H]65)C2)C1 [Example 61, 12′-formylvinblastine] | 3 nM | 3 nM |  | 
CC[C@]1(O)C[C@H]2CN(CCc3c([nH]c4ccc(C=O)cc34)[C@@](C(=O)OC)(c3cc4c(cc3OC)N(C=O)[C@H]3[C@@](O)(C(=O)OC)[C@H](OC(C)=O)[C@]5(CC)C=CCN6CC[C@]43[C@@H]65)C2)C1 [Example 62, 12′-formylvincristine] | 10 nM | 30 nM |  | 
CC[C@]1(O)C[C@H]2CN(CCc3c([nH]c4ccc(CO)cc34)[C@@](C(=O)OC)(c3cc4c(cc3OC)N(C)[C@H]3[C@@](O)(C(=O)OC)[C@H](OC(C)=O)[C@]5(CC)C=CCN6CC[C@]43[C@@H]65)C2)C1 [Example 63, 12′-(hydroxymethyl) vinblastine] | 40 nM | 60 nM |  | 
CC[C@]1(O)C[C@H]2CN(CCc3c([nH]c4ccc(CNC(C)C)cc34)[C@@](C(=O)OC)(c3cc4c(cc3OC)N(C)[C@H]3[C@@](O)(C(=O)OC)[C@H](OC(C)=O)[C@]5(CC)C=CCN6CC[C@]43[C@@H]65)C2)C1 [Example 64, 12′-(N-isopropylaminomethyl)vinblastine] | 900 nM | > 1000 nM |  | 
CC[C@]1(O)C[C@H]2CN(CCc3c([nH]c4ccc(C#N)cc34)[C@@](C(=O)OC)(c3cc4c(cc3OC)N(C)[C@H]3[C@@](O)(C(=O)OC)[C@H](OC(C)=O)[C@]5(CC)C=CCN6CC[C@]43[C@@H]65)C2)C1 [Example 65, 12′-cyanovinblastine] | 3 nM | 3 nM |  | 
CC[C@]1(O)C[C@H]2CN(CCc3c([nH]c4ccc(C#N)cc34)[C@@](C(=O)OC)(c3cc4c(cc3OC)N(C=O)[C@H]3[C@@](O)(C(=O)OC)[C@H](OC(C)=O)[C@]5(CC)C=CCN6CC[C@]43[C@@H]65)C2)C1 [Example 66, 12′-cyanovincristine] | 10 nM | 4 nM |  | 
